Here are results for 23 compounds from patent US10543212B2, “Substituted amines for treating cardiac diseases” (Cardurion Pharmaceuticals, LLC, priority 2017, dated 2020).

The term IC50 denotes the point on the concentration scale where inhibition reaches its midpoint.

T1 sequence (Q13557 1-478 isoform Q13557-12): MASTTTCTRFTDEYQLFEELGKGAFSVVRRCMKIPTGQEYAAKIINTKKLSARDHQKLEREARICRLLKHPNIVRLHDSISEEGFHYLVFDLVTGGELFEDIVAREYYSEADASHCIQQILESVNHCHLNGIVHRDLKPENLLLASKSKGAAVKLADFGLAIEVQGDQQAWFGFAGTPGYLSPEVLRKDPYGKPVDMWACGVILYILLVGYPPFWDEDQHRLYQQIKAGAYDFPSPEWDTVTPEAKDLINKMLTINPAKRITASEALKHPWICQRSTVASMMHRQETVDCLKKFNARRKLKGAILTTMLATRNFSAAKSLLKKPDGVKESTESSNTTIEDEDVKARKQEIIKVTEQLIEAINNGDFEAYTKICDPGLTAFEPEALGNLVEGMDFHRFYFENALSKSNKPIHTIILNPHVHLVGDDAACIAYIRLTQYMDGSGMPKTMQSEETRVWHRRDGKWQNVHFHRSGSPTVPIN

The first assay has as its target T1, Full-length, GST-tagged, human CaMKIIδ (Homo sapiens, UniProt Q13557).
T1 construct: Full-Length, Glutathione-S-Transferase(GST)-Tagged, Human CaMKIIδ was purchased from Carna Biosciences; purchased Carna Biosciences 02-111
The assay can be described thus: CaMKIIδ binding assay (TR-FRET with BODIPY-labeled probe ligand). The conditions noted are these: CaMKIIδ binding assay, results of Table 2. In outline:
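Compounds were tested as 4-fold, eight-point series for 1 hr at room temperature, and IC50 was obtained by logistic fitting against a 3 μM parent-compound control. Signal came from displacement of a 300 nM BODIPY ligand from 0.5 nM GST-CaMKIIδ, detected via Tb-anti-GST in calmodulin/Ca2+ (pH 7.6).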
As to `C[C@@H](Cn1cnnn1)Oc1cc(-c2cnc(Nc3cn(C4CCN(CCO)CC4)nc3C(F)(F)F)nc2)ccc1Cl` [Example 535, (S)-2-(4-(4-((5-(3-((1-(1H-tetrazol-1-yl)propan-2-yl)oxy)-4-chlorophenyl)pyrimidin-2-yl)amino)-3-(trifluoromethyl)-1H-pyrazol-1-yl)piperidin-1-yl)ethan-1-ol], the IC50 was less than 10 nM.

As for `COc1cnc(N2CCC(N3CCOCC3)CC2)cc1Nc1ncc(-c2ccc(Cl)c(O[C@@H](C)Cn3cnnn3)c2)cn1` [Example 456, (S)-5-(3-((1-(1H-tetrazol-1-yl)propan-2-yl)oxy)-4-chlorophenyl)-N-(5-methoxy-2-(4-morpholinopiperidin-1-yl)pyridin-4-yl)pyrimidin-2-amine], the IC50 is less than 10 nM.

On to `C[C@@H](Cn1cnnn1)Oc1cc(-c2cnc(Nc3cn(C4CCN(Cc5cccn5C)CC4)nc3C(F)(F)F)nc2)ccc1Cl` [Example 566, (S)-5-(3-((1-(1H-tetrazol-1-yl)propan-2-yl)oxy)-4-chlorophenyl)-N-(1-(1-((1-methyl-1H-pyrrol-2-yl)methyl)piperidin-4-yl)-3-(trifluoromethyl)-1H-pyrazol-4-yl)pyrimidin-2-amine], for which the IC50 is less than 10 nM.

For `C[C@@H](Cn1cnnn1)Oc1cc(-c2cnc(Nc3cn(C4CCN(Cc5cccnc5)CC4)nc3C(F)(F)F)nc2)ccc1Cl` [Example 563, (S)-5-(3-((1-(1H-tetrazol-1-yl)propan-2-yl)oxy)-4-chlorophenyl)-N-(1-(1-(pyridin-3-ylmethyl)piperidin-4-yl)-3-(trifluoromethyl)-1H-pyrazol-4-yl)pyrimidin-2-amine], the half-maximal inhibitory concentration (IC50) fell in the range of 10 to 100 nM.

Compound `C[C@@H](Cn1cnnn1)Oc1cc(-c2cnc(Nc3cn(CC4CCN(C(=O)OC(C)(C)C)C4)nc3C(F)(F)F)nc2)ccc1Cl` (stereo partly drawn) [Example 571, tert-butyl 3-((4-((5-(3-(((S)-1-(1H-tetrazol-1-yl)propan-2-yl)oxy)-4-chlorophenyl)pyrimidin-2-yl)amino)-3-(trifluoromethyl)-1H-pyrazol-1-yl)methyl) pyrrolidine-1-carboxylate] gave a 50% inhibitory concentration (IC50) of no less than 100 nM.

`C[C@@H](Cn1cnnn1)Oc1cc(-c2cnc(Nc3cn(C4CCN(C5COC5)CC4)nc3C(F)(F)F)nc2)ccc1Cl` [Example 562, (S)-5-(3-((1-(1H-tetrazol-1-yl)propan-2-yl)oxy)-4-chlorophenyl)-N-(1-(1-(oxetan-3-yl)piperidin-4-yl)-3-(trifluoromethyl)-1H-pyrazol-4-yl)pyrimidin-2-amine] gave an IC50 of 10 to 100 nM.

The assay is the same for the next values; noted with them: CaMKIIδ binding assay; activity class per Table 2.
Consider `C[C@@H](Cn1cnnn1)Oc1cc(-c2cnc(Nc3cn(C4CC5(CNC5)C4)nc3C(F)(F)F)nc2)ccc1Cl` [Example 920, (S)-5-(3-((1-(1H-tetrazol-1-yl)propan-2-yl)oxy)-4-chlorophenyl)-N-(1-(2-azaspiro[3.3]heptan-6-yl)-3-(trifluoromethyl)-1H-pyrazol-4-yl)pyrimidin-2-amine], for which the IC50 was less than 10 nM.

As for `C[C@@H](Cn1cnnn1)Oc1cc(-c2cnc(Nc3cn(C4CC5(CNC5)C4)nc3OCC(F)(F)F)nc2)ccc1Cl` [Example 925, (S)-5-(3-((1-(1H-tetrazol-1-yl)propan-2-yl)oxy)-4-chlorophenyl)-N-(1-(2-azaspiro[3.3]heptan-6-yl)-3-(2,2,2-trifluoroethoxy)-1H-pyrazol-4-yl)pyrimidin-2-amine], the IC50 is less than 10 nM.

Compound `CCC(=O)c1nn(C2CC3(C2)CN(C2CCOCC2)C3)cc1Nc1ncc(-c2ccc(Cl)c(O[C@@H](C)Cn3cnnn3)c2)cn1` [Example 958, (S)-1-(4-((5-(3-((1-(1H-tetrazol-1-yl)propan-2-yl)oxy)-4-chlorophenyl)pyrimidin-2-yl)amino)-1-(2-(tetrahydro-2H-pyran-4-yl)-2-azaspiro[3.3]heptan-6-yl)-1H-pyrazol-3-yl)propan-1-one] had an IC50 of less than 10 nM.

In the case of `C[C@@H](Cn1cnnn1)Oc1cc(-c2cnc(Nc3cn(C(C)(C)C(=O)O)nc3OCC(F)(F)F)nc2)ccc1Cl` [Example 889, (S)-2-(4-((5-(3-((1-(1H-tetrazol-1-yl)propan-2-yl)oxy)-4-chlorophenyl)pyrimidin-2-yl)amino)-3-(2,2,2-trifluoroethoxy)-1H-pyrazol-1-yl)-2-methylpropanoic acid], the IC50 fell in the range of 10 to 100 nM.

The compound `C[C@@H](Cn1cnnn1)Oc1cc(-c2cnc(Nc3cn(C4CC5(C4)CN(C4(C)CCOC4)C5)nc3OCC(F)(F)F)nc2)ccc1Cl` (stereo partly drawn) [Example 954, 5-(3-(((S)-1-(1H-tetrazol-1-yl)propan-2-yl)oxy)-4-chlorophenyl)-N-(1-(2-(3-methyltetrahydrofuran-3-yl)-2-azaspiro[3.3]heptan-6-yl)-3-(2,2,2-trifluoroethoxy)-1H-pyrazol-4-yl)pyrimidin-2-amine] registered a 50% inhibitory concentration (IC50) of less than 10 nM.

The assay is the same for the next values; noted with them: Table 2; CaMKIIδ binding assay, activity given as class A/B/C.
In the case of `C[C@@H](Cn1cnnn1)Oc1cc(-c2cnc(Nc3n[nH]cc3Cl)nc2)ccc1Cl` [Example 749, (S)-5-(3-((1-(1H-tetrazol-1-yl)propan-2-yl)oxy)-4-chlorophenyl)-N-(4-chloro-1H-pyrazol-3-yl)pyrimidin-2-amine], the IC50 lay within 10 to 100 nM.

In turn, `Cc1ccc(-c2cnc(Nc3cn([C@H]4CC[C@@H](N5CCOCC5)CC4)nc3C(F)(F)F)nc2)cc1O[C@@H](C)Cn1cnnn1` [Example 809, 5-(3-(((S)-1-(1H-tetrazol-1-yl)propan-2-yl)oxy)-4-methylphenyl)-N-(1-(cis-4-morpholinocyclohexyl)-3-(trifluoromethyl)-1H-pyrazol-4-yl)pyrimidin-2-amine] returned an IC50 of 10 to 100 nM.

In the case of `C[C@@H](Cn1cnnn1)Oc1cc(-c2cnc(Nc3cn(C4CCN(C5CCOCC5)CC4)nc3OCC(F)F)nc2)ccc1Cl` [Example 792, (S)-5-(3-((1-(1H-tetrazol-1-yl)propan-2-yl)oxy)-4-chlorophenyl)-N-(3-(2,2-difluoroethoxy)-1-(1-(tetrahydro-2H-pyran-4-yl)piperidin-4-yl)-1H-pyrazol-4-yl)pyrimidin-2-amine], the IC50 is less than 10 nM.

For the compound `C[C@@H](Cn1cnnn1)Oc1cc(-c2cnc(Nc3cn(C4CC5(C4)CN(CC(C)(C)O)C5)nc3C(F)(F)F)nc2)ccc1Cl` [Example 859, (S)-1-(6-(4-((5-(3-((1-(1H-tetrazol-1-yl)propan-2-yl)oxy)-4-chlorophenyl)pyrimidin-2-yl)amino)-3-(trifluoromethyl)-1H-pyrazol-1-yl)-2-azaspiro[3.3]heptan-2-yl)-2-methylpropan-2-ol], the IC50 is less than 10 nM.

In the case of `C[C@@H](Cn1cnnn1)Oc1cc(-c2cnc(Nc3cn([C@H]4CC[C@@H](N5CCOCC5)CC4)nc3OCC(F)(F)F)nc2)ccc1Cl` [Example 780, 5-(3-(((S)-1-(1H-tetrazol-1-yl)propan-2-yl)oxy)-4-chlorophenyl)-N-(1-(cis-4-morpholinocyclohexyl)-3-(2,2,2-trifluoroethoxy)-1H-pyrazol-4-yl)pyrimidin-2-amine], the IC50 is less than 10 nM.

For the compound `C[C@@H](Cn1cnnn1)Oc1cc(-c2cnc(Nc3cn([C@H]4CC[C@H](N5CC6(COC6)C5)CC4)nc3OCC(F)F)nc2)ccc1Cl` [Example 827, 5-(3-(((S)-1-(1H-tetrazol-1-yl)propan-2-yl)oxy)-4-chlorophenyl)-N-(1-(trans-4-(2-oxa-6-azaspiro[3.3]heptan-6-yl)cyclohexyl)-3-(2,2-difluoroethoxy)-1H-pyrazol-4-yl)pyrimidin-2-amine], the IC50 is less than 10 nM.

Still in this assay, the particulars now being: Table 2; activity class for CaMKIIδ.
`CC(C)c1nn(C2CCN(C3CCOCC3)CC2)cc1Nc1ncc(-c2ccc(Cl)c(O[C@@H](C)Cn3cnnn3)c2)cn1` [Example 623, (S)-5-(3-((1-(1H-tetrazol-1-yl)propan-2-yl)oxy)-4-chlorophenyl)-N-(3-isopropyl-1-(1-(tetrahydro-2H-pyran-4-yl)piperidin-4-yl)-1H-pyrazol-4-yl)pyrimidin-2-amine]: the IC50 is less than 10 nM.

In turn, `COc1cc(N2CCN(C3CCOC3)CC2)ncc1Nc1ncc(-c2ccc(Cl)c(O[C@@H](C)Cn3cnnn3)c2)cn1` (stereo partly drawn) [Example 651, 5-(3-(((S)-1-(1H-tetrazol-1-yl)propan-2-yl)oxy)-4-chlorophenyl)-N-(4-methoxy-6-(4-(tetrahydrofuran-3-yl)piperazin-1-yl)pyridin-3-yl)pyrimidin-2-amine] displayed an IC50 of 10 to 100 nM.

For the compound `C[C@@H](Cn1cnnn1)Oc1cc(-c2cnc(Nc3cn(C4CCCN(C5COC5)C4)nc3C(F)(F)F)nc2)ccc1Cl` (stereo partly drawn) [Example 601, 5-(3-(((S)-1-(1H-tetrazol-1-yl)propan-2-yl)oxy)-4-chlorophenyl)-N-(1-(1-(oxetan-3-yl)piperidin-3-yl)-3-(trifluoromethyl)-1H-pyrazol-4-yl)pyrimidin-2-amine], the half-inhibitory concentration (IC50) lay within 10 to 100 nM.

Take `COc1nn(C2CCNCC2)cc1Nc1ncc(-c2ccc(Cl)c(O[C@@H](C)Cn3cnnn3)c2)cn1` [Example 657, (S)-5-(3-((1-(1H-tetrazol-1-yl)propan-2-yl)oxy)-4-chlorophenyl)-N-(3-methoxy-1-(piperidin-4-yl)-1H-pyrazol-4-yl)pyrimidin-2-amine]: the IC50 is less than 10 nM.

With `C[C@@H](Cn1cnnn1)Oc1cc(-c2cnc(Nc3cn([C@@H]4CCCC[C@H]4O)nc3C(F)(F)F)nc2)ccc1Cl` (mixture of isomers) [Example 704, trans-2-(4-((5-(3-(((S)-1-(1H-tetrazol-1-yl)propan-2-yl)oxy)-4-chlorophenyl)pyrimidin-2-yl)amino)-3-(trifluoromethyl)-1H-pyrazol-1-yl)cyclohexan-1-ol], the IC50 is less than 10 nM.

Turning to `C[C@@H](Cn1cnnn1)Oc1cc(-c2cnc(Nc3cn(C4CCN(C5CCOCC5)CC4)nc3C#N)nc2)ccc1Cl` [Example 592, (S)-4-((5-(3-((1-(1H-tetrazol-1-yl)propan-2-yl)oxy)-4-chlorophenyl)pyrimidin-2-yl)amino)-1-(1-(tetrahydro-2H-pyran-4-yl)piperidin-4-yl)-1H-pyrazole-3-carbonitrile], the IC50 is less than 10 nM.
